# Results as given in patent US20240024385A1, “PROBIOTIC STRAIN FOR REDUCING SERUM URIC ACID, COMPOSITION AND USE THEREOF” (Ningbo Beiyijia Biotechnology Co., Ltd., priority 2022, published 2024).
# Assays:
# [1] = tested on: serum uric acid; assay: Combined use of composition 6 with a uric acid-reducing drug, serum uric acid in hyperuricemia patients with tophi; format: in vivo, human; set-up: Serum uric acid: unit not given here; settings: for Serum uric acid: hyperuricemia patients with tophi, febuxostat 20 mg/day or benzbromarone 25 mg/day; for Effect on increase of serum uric acid level caused by dissolution of urate crystals by composition 6: small dose combined with composition 6 (febuxostat 20 mg/day or benzbromarone 25 mg/day)
# Description: The process of dissolving urate crystals and tophi will result in a temporary increase of the serum uric acid level, which may lead to acute gout inflammation. In order to relieve the increase of the serum uric acid level caused by the dissolution of urate crystals or tophi, the effect of combined use of the composition 6 with a small-dose uric acid-reducing drug on the inhibition of the rise of the serum uric acid level was investigated.
# Fifty hyperuricemia patients with tophi were recruited as volunteers, divided into 5 groups, and separately administered with the composition 6 and the uric acid-reducing drug (febuxostat 20 mg/day or benzbromarone 25 mg/day) alone or in combination. The change of serum uric acid during the intervention period was observed.
# [2] = 20° C.; cited from earlier work
smiles,measurement,setting,value
CCc1oc2ccccc2c1C(=O)c1cc(Br)c(O)c(Br)c1 [benzbromarone],Serum uric acid,[1]; Day 0 (before intervention),640 ± 78
same,Serum uric acid,[1]; Day 30,593 ± 71
same,Serum uric acid,[1]; Day 60,463 ± 53
same,Serum uric acid,[1]; Day 90,405 ± 37
same,Effect on increase of serum uric acid level caused by dissolution of urate crystals by composition 6,[1],can inhibit the increase of the serum uric acid level
Cc1nc(-c2ccc(OCC(C)C)c(C#N)c2)sc1C(=O)O [febuxostat],Serum uric acid,[1]; Day 0 (before intervention),631 ± 51
same,Serum uric acid,[1]; Day 30,571 ± 52
same,Serum uric acid,[1]; Day 60,478 ± 57
same,Serum uric acid,[1]; Day 90,416 ± 59
same,Effect on increase of serum uric acid level caused by dissolution of urate crystals by composition 6,[1],can inhibit the increase of the serum uric acid level
Nc1nc2nc[nH]c2c(=O)[nH]1 [guanine],Solubility in water,[2],0.17 mg/100 mL
Nc1nc2c(ncn2[C@@H]2O[C@H](COP(=O)(O)O)[C@@H](O)[C@H]2O)c(=O)[nH]1 [guanosine monophosphate],Solubility in water,[2],20 g/100 mL
Nc1nc2c(ncn2[C@@H]2O[C@H](CO)[C@@H](O)[C@H]2O)c(=O)[nH]1 [guanosine],Solubility in water,[2],77.6 mg/100 mL
